What was measured:
[1] = system: nematodes (J2's); assay: SAR motility bioassay of synthetic analogues; type: in vivo; conditions: 3 μL at 20 mg/ml into 50 μl with approximately 300 J2's, 24 hours, then 24 hour recovery on 1.5% water agar; average of 6 repetitions
Protocol: To quickly understand which part of the 1-(4-hydroxyphenyl) pent-1-en-3-one (1) molecule (polyketide) plays a crucial role on the nematicidal activity, a series of structural analogues were synthesized and evaluated using motility test. This bioassay serves to distinguish the differences in efficacy by measuring the recovery and the mobility of the nematodes after being exposed to any given compound with 6 repetitions per treatment. This bioassay involves the following procedure: 3 μL (at 20 mg/ml) of the sample are dispensed into 50 μl of approximately 300 J2's in a 96-well plastic cell-culture plate. After 24 hours, 100-150 of the treated J2's were transferred into 6-well plates that contain 1.5% water agar. After drying of the test sample on the agar, the initial drop was marked and initial counts of the J2's were carried out. After another 24 hour recovery period, the immobilization of the juveniles were measured by counting the number of J2's that moved from the initial circle and an average of the 6 repetitions were calculated to get the percent immobilization of each sample.

[2] = system: nematode juveniles (J2) of M. incognita (Monsanto strain); assay: Dose response % immotility for synthesized polyketide, 6-well plate immobility bioassay; type: in vivo, Meloidogyne incognita; conditions: tested 0.14-1.69 mg/mL in DMSO; 24 h exposure, 24 h on water agar; FIG. 23
Protocol: The synthetic polyketide (MW 176) was tested at several doses (concentrations tested were 0.14, 0.28, 0.42, 0.56, 0.84, 1.13, 1.69 mg/mL of polyketide in DMSO) in the 6-well plate immobility bioassay to find the optimal dose of this compound needed in order to detect nematicidal activity. In this particular assay the nematode juveniles (J2) of M. incognita (Monsanto strain) were first exposed to the tested samples in 96-well plate: 50 μl of water containing approximately 300 J2 were mixed with 3 μl of polyketide sample or controls (avid (2%) as positive control or DMSO and water as negative controls, respectively. After 24 h incubation, 20 μl of J2 suspension from each well was transferred into the wells of 6-well plates filled with water agar (3 mL of 1% agar per each well). The plates were left open for 10-15 min to allow the solutions to dry out. Afterwards, circles were drawn around the J2 suspension and initial numbers of J2 inside the circles were counted under the stereomicroscope. The plates were incubated for another 24 h and the numbers of J2 that remained immotile (i.e. were still present inside the circles) were counted using stereomicroscope. The % of nematode immotility was expressed as: [(number of immotile nematodes after 24 h incubation/initial number of J2)*100%].

[3] = system: M. hapla; assay: In vitro 96-well plate bioassay of purified peaks of fraction 3; type: in vivo, Meloidogyne hapla; conditions: 24 hour at 25° C.
Protocol: (§1) Once the purification of fraction 3 is complete and all of the desired peaks/compounds are collected as described above, each peak is tested in an in vitro 96-well plastic cell-culture plate extract bioassay in order to identify the peak/s that contain the desired active metabolite/s.
(§2) 15-20 nematodes in a […] water solution are exposed to […] of a 20 mg/ml peak concentrate (1.13 mg/ml total exposure) for a 24 hour period at 25° C. Once the incubation period is completed, results are recorded based on a visual grading of immotility of the J2s in each well treated with H492 purified peaks of H1 to H39, plus H29-A derived from fraction 3, each treatment is tested in four replicates. Three controls are included in each trial; one positive control (1% avid). and two negative controls (DMSO and water). Trial 1 (T1) was carried out using the method described above with M. hapla, trial 2 and 3 (T2 and T3) were carried out using the latter method with M. incognita (FIG. 22).

[4] = system: M. incognita; assay: as above; type: in vivo, Meloidogyne incognita; conditions: 24 hour at 25° C.
Protocol: as §1, §2

[5] = system: Avidovorax avenae subsp. citrulli; assay: Antimicrobial agar disc assay; type: cell-based
Protocol: (§3) The pure 1-(4-hydroxyphenyl) pent-1-en-3-one (1) “polyketide MW 176” was tested against various microbial pathogens using agar disc assay.

[6] = system: Erwinia amylovora; assay: Antimicrobial agar disc assay; type: cell-based
Protocol: as §3

[7] = system: Xanthomonas campestris; assay: Antimicrobial agar disc assay; type: cell-based
Protocol: as §3

[8] = system: Bacillus cereus; assay: Antimicrobial agar disc assay; type: cell-based
Protocol: as §3

[9] = system: M. incognita; assay: Greenhouse cone test of polyketide 1, tomato (cv. UC82) as host; type: in vivo, Meloidogyne incognita; conditions: compared to water control
Protocol: The nematicidal activity of polyketide 1 (MW 176 compound) against root-knot nematodes was further assessed in greenhouse in cone tests using M. incognita and tomato (cv. UC82) as a host. The tomato seeds were germinated in vermiculate and 3-week-old seedlings were transferred to the cones containing mixture of sand and top soil (1:1). Two weeks after transplanting, tomato plants were treated with the samples. […] Four different concentrations (100, 10, 1, & 0.1 μg/mL) of the polyketide prepared in 4% methanol (MeOH) were dosed as 10 mL of soil drench into each pot. Each treatment was tested in 5 replicates. Following the drench each pot was inoculated with 1000 nematode eggs suspended in 1 mL of water. The dosing of the product was repeated after two weeks. Three weeks later, the inoculation test was terminated and the following parameters were scored: number of galls/root, gall index and fresh top weight.

Compound	Average % immobility [1] [%]	further results
CC(C)CC(=O)/C=C/c1ccc(O)cc1 [SAR-10, (E)-1-(4-hydroxyphenyl)-5-methylhex-1-en-3-one]	96	–
CC(=O)/C=C/c1ccccc1O [SAR-12, (E)-4-(2-hydroxyphenyl)but-3-en-2-one]	99	–
O=Cc1ccc(O)cc1 [SAR-30, 4-hydroxybenzaldehyde]	58	–
O=Cc1ccccc1O [SAR-31, 2-hydroxybenzaldehyde]	58	–
CC(=O)/C=C/C=C/c1ccccc1 [SAR-4, (3E,5E)-6-phenylhexa-3,5-dien-2-one]	97	–
O=Cc1ccccc1OCC(=O)c1ccccc1 [SAR-13, 2-(2′-phenyl-2-oxoethoxy) benzaldehyde]	74	–
O=C(/C=C/c1ccccc1)c1ccccc1 [SAR-2, Benzalacetophenone]	4	–
O=C(/C=C/c1cccc(O)c1)c1ccccc1 [SAR-22, (E)-3-(3-hydroxyphenyl)-1-phenylprop-2-en-1-one]	70	–
O=C(/C=C/c1cccc(O)c1)/C=C/c1cccc(O)c1 [SAR-18, (1E,4E)-1,5-bis(3-hydroxyphenyl) penta-1,4-dien-3-one]	23	–
C/C(=C\c1cccc(O)c1)C(=O)/C=C/c1cccc(O)c1 [SAR-21, (1E,4E)-1,5-bis(3-hydroxyphenyl)-2-methylpenta-1,4-dien-3-one]	12	–
O=Cc1ccccc1 [SAR-32, Benzaldehyde]	65	–
CC(=O)CC(C)(C)O [SAR-41, 4-hydroxy-4-methylpentanone]	21	–
CCCCCCCCCC(C)=O [SAR-37, 2-undecanone]	67	–
CCCCC1CCC(=O)O1 (stereo not shown) [SAR-34, γ-octalactone]	21	–
O=C(/C=C/Cc1ccccc1)c1ccc(O)cc1 [SAR-20, (E)-1-(4-hydroxyphenyl)-4-phenylbut-2-en-1-one]	28	–
CC(=O)/C=C/c1ccccc1 [SAR-1, (E)-4-phenylbut-3-en-2-one]	99	–
CCC(=O)/C=C/c1ccc(O)cc1 [Compound 1, 1-(4-hydroxyphenyl) pent-1-en-3-one]	–	optimal range required for good nematicidal activity (% immotility) [2]: ≥ 0.5 mg/mL; Potency in in vitro assay (immotility of J2s) [3]: confirmed; Potency in in vitro assay (immotility of J2s) [4]: confirmed; antimicrobial activity [5]: moderate activity; antimicrobial activity [6]: potent activity; antimicrobial activity [7]: moderate activity; antimicrobial activity [8]: moderate activity; gall index ([9]; 0.1 mg/ml, 10 mL soil drench, 1st test): significantly reduced; gall index and galls per root ([9]; 0.001 & 0.01 mg/ml, 10 mL soil drench, 1st test): significantly reduced; gall index ([9]; all tested dilutions, 2nd test): significantly reduced
CCCCCCC(C)=O [SAR-35, 2-octanone]	33	–
CC(C)CC(=O)/C=C/c1ccccc1O [SAR-8, (E)-1-(2-hydroxyphenyl)-5-methylhex-1-en-3-one]	100	–
CC(=O)/C=C/c1ccc(O)cc1 [SAR-28, (E)-4-(4-hydroxyphenyl)but-3-en-2-one]	78	–
CC/C=C\CCC=O [SAR-38, cis-4-heptenal]	21	–
CCCCCCCCC1CCC(=O)O1 (stereo not shown) [SAR-33, γ-dodecalactone]	63	–

Compound	Average % immobility [1] [%]	further results
CC(=O)/C=C/c1ccccc1O [SAR-3, (E)-4-(2-hydroxyphenyl)but-3-en-2-one]	95	–
CCCCCC(C)=O [SAR-36, 2-heptanone]	21	–
O=C(CBr)c1ccccc1 [SAR-26, 2-bromo-1-phenylethanone]	50	–
COc1ccccc1C=O [SAR-42, o-anisaldehyde]	8	–
O=C(/C=C/c1ccc(O)cc1)c1ccccc1 [SAR-9, (E)-3-(4-hydroxyphenyl)-1-phenylprop-2-en-1-one]	100	–
O=C(/C=C/C=C/c1ccccc1)c1ccccc1 [SAR-5, (2E,4E)-1,5-diphenylpenta-2,4-dien-1-one]	98	–
O=C(/C=C/Cc1ccccc1)c1ccccc1 [SAR-19, (E)-1,4-diphenylbut-2-en-1-one]	64	–
CC(C)C=O [SAR-40, iso-butyraldehyde]	79	–
CCC(=O)/C=C/c1ccccc1 [SAR-23, (E)-1-phenylpent-1-en-3-one]	80	–
CC(=O)CC(C)C [SAR-39, 4-methyl-2-pentanone]	54	–
O=C(/C=C/c1ccccc1O)c1ccccc1 [SAR-7, (E)-3-(2-hydroxyphenyl)-1-phenylprop-2-en-1-one]	99	–
CCC(=O)/C=C/c1ccccc1O [SAR-6, (E)-1-(2-hydroxyphenyl)pent-1-en-3-one]	98	–
O=Cc1cccc(O)c1 [SAR-29, 3-hydroxybenzaldehyde]	70	–
CC(=O)/C=C/c1cccc(O)c1 [SAR-11, (E)-4-(3-hydroxyphenyl)but-3-en-2-one]	99	–
CCC(C)=O [SAR-43, 2-butanone]	21	–
CC/C=C/C(=O)c1ccccc1 [SAR-15, (E)-1-phenylpent-2-en-1-one]	20	–
CC(C)CC(=O)/C=C/c1ccccc1 [SAR-25, (E)-5-methyl-1-phenylhex-1-en-3-one]	79	–
CC(=O)/C(C)=C/c1ccccc1O [SAR-14, (E)-4-(2-hydroxyphenyl)-3-methylbut-3-en-2-one]	97	–
CC(=O)/C(C)=C/c1ccc(O)cc1 [SAR-24, (E)-4-(4-hydroxyphenyl)-3-methylbut-3-en-2-one]	80	–
CC(C)CC(=O)/C=C/c1cccc(O)c1 [SAR-27, (E)-1-(3-hydroxyphenyl)-5-methylhex-1-en-3-one]	78	–
CC/C=C\CC/C=C/C(C)=O [SAR-16, (3E,7Z)-deca-3,7-dien-2-one]	94	–
